According to US10758534B2 (Vertex Pharmaceuticals Incorporated, priority 2014, dated 2020):

Molecular target: T1, F508del (Homo sapiens, UniProt P13569, DEL508-508)
T1 construct: expressed in transfected cells
Assay: Protocol 2: FRET membrane potential optical assay (VIPR), identification of correction compounds
Assay type: cell-based
Conditions: F508del CFTR modulator activity; compounds of Table 1; read-out: EC30
Outline: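 Mouse NIH3T3 cells, stable F508del; cpd 16 hrs, 37° C., serum-free; pos ctrl 27° C. 16 hrs. Rinse in Krebs Ringers, dye load, then add 10 μM forskolin + 20 μM genistein with Cl^−-free (gluconate) medium; depolarization by FRET voltage dyes.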

T1 sequence (P13569 with tags, fused parts or gaps DEL508-508): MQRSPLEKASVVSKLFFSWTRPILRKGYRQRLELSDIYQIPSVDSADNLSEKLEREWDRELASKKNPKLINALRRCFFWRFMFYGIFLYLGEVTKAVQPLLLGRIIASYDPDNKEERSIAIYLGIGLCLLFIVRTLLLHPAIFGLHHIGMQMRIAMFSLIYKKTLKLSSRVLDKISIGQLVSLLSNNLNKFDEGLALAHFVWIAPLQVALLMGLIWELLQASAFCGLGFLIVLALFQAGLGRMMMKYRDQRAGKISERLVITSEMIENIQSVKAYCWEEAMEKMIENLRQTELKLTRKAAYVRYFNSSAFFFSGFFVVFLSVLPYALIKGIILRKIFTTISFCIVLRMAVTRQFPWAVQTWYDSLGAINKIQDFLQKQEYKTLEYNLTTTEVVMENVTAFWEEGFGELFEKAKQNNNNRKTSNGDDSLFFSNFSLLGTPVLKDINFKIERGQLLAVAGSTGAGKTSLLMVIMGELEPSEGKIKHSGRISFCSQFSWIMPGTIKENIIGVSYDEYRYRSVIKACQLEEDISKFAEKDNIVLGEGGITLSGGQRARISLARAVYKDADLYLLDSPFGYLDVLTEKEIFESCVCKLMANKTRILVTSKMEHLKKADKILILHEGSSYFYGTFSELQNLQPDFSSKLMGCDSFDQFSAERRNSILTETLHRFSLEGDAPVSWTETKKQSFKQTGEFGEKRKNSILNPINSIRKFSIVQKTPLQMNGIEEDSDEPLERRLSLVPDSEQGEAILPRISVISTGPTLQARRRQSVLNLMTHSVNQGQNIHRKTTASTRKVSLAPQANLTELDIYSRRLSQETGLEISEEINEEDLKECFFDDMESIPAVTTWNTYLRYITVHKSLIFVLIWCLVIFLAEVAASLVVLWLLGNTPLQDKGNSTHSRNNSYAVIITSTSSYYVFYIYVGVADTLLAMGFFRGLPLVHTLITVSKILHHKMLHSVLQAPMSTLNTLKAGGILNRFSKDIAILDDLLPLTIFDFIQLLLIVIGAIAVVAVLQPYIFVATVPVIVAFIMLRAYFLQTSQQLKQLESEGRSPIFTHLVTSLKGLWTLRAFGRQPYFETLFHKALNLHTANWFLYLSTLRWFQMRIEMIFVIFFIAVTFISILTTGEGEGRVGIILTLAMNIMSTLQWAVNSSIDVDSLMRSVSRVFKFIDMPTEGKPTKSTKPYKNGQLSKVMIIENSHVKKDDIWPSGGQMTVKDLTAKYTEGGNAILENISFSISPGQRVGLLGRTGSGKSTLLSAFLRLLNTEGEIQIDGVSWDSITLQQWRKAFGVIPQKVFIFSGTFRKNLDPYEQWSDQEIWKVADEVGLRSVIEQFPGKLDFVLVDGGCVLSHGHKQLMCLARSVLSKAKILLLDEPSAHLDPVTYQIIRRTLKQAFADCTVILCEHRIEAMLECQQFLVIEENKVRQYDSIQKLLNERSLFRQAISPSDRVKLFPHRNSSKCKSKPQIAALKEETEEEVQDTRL

| Structure (SMILES) | EC30 [µM] |
| --- | --- |
| COc1cc(CO)cc(-c2ccc(C(=O)NS(=O)(=O)c3ccc[nH]c3=O)c(N3C[C@@H](C)CC3(C)C)n2)c1 [Compound 2247, 6-[3-(hydroxymethyl)-5-methoxy-phenyl]-N-[(2-oxo-1H-pyridin-3-yl)sulfonyl]-2-[(4S)-2,2,4-trimethylpyrrolidin-1-yl]pyridine-3-carboxamide] | 3 to 10 |
| Cc1c(F)cccc1-c1ccc(C(=O)NS(=O)(=O)c2cccc(N)n2)c(N2C[C@@H](C)CC2(C)C)n1 [Compound 2616, N-[(6-amino-2-pyridyl)sulfonyl]-6-(3-fluoro-2-methyl-phenyl)-2-[(4S)-2,2,4-trimethylpyrrolidin-1-yl]pyridine-3-carboxamide] | < 3 |
| C[C@@H]1CN(c2nc(-c3ccccc3C(F)(F)F)ccc2C(=O)NS(=O)(=O)c2cccnc2N)C(C)(C)C1 [Compound 2040, N-[(2-amino-3-pyridyl)sulfonyl]-6-[2-(trifluoromethyl)phenyl]-2-[(4S)-2,2,4-trimethylpyrrolidin-1-yl]pyridine-3-carboxamide] | < 3 |
| COCCCN(C)c1cccc(S(=O)(=O)NC(=O)c2cccnc2N2CC(C)CC2(C)C)n1 (centres unmarked) [Compound 2734] | 3 to 10 |
| C[C@@H]1CN(c2nc(-c3ccccc3O)ccc2C(=O)NS(=O)(=O)c2ccc[nH]c2=O)C(C)(C)C1 [Compound 2480, 6-(2-hydroxyphenyl)-N-[(2-oxo-1H-pyridin-3-yl)sulfonyl]-2-[(4S)-2,2,4-trimethylpyrrolidin-1-yl]pyridine-3-carboxamide] | 3 to 10 |
| CC(C)COc1ccccc1-c1ccc(C(=O)NS(=O)(=O)c2ccc[nH]c2=O)c(N2C[C@@H](C)CC2(C)C)n1 [Compound 2629, 6-(2-isobutoxyphenyl)-N-[(2-oxo-1H-pyridin-3-yl)sulfonyl]-2-[(4S)-2,2,4-trimethylpyrrolidin-1-yl]pyridine-3-carboxamide] | < 3 |
| CC1CN(c2ncccc2C(=O)NS(=O)(=O)c2cccc(Oc3ccc(Cl)c(Cl)c3)n2)C(C)(C)C1 (centres unmarked) [Compound 2061, N—[[6-(3,4-dichlorophenoxy)-2-pyridyl]sulfonyl]-2-(2,2,4-trimethylpyrrolidin-1-yl)pyridine-3-carboxamide] | < 3 |
| CC(C)COc1cc(F)cc(-c2ccc(C(=O)NS(=O)(=O)c3cccnc3)c(N3C[C@@H](C)CC3(C)C)n2)c1 [Compound 2377, 6-(3-fluoro-5-isobutoxy-phenyl)-N-(3-pyridylsulfonyl)-2-[(4S)-2,2,4-trimethylpyrrolidin-1-yl]pyridine-3-carboxamide] | < 3 |
| CC(C)COc1cc(F)cc(-c2ccc(C(=O)NS(=O)(=O)c3cccc(N)n3)c(N3CCCC4CC43)n2)c1 (centres unmarked) [Compound 2376, N-[(6-amino-2-pyridyl)sulfonyl]-2-(5-azabicyclo[4.1.0]heptan-5-yl)-6-(3-fluoro-5-isobutoxy-phenyl)pyridine-3-carboxamide] | < 3 |
| COc1cccc(-c2ccc(C(=O)NS(=O)(=O)c3cccnc3N)c(N3C[C@@H](C)CC3(C)C)n2)c1O [Compound 2158, N-[(2-amino-3-pyridyl)sulfonyl]-6-(2-hydroxy-3-methoxy-phenyl)-2-[(4S)-2,2,4-trimethylpyrrolidin-1-yl]pyridine-3-carboxamide] | 3 to 10 |
| COc1ccc(C)cc1-c1ccc(C(=O)NS(=O)(=O)c2ccc[nH]c2=O)c(N2C[C@@H](C)CC2(C)C)n1 [Compound 2530, 6-(2-methoxy-5-methyl-phenyl)-N-[(2-oxo-1H-pyridin-3-yl)sulfonyl]-2-[(4S)-2,2,4-trimethylpyrrolidin-1-yl]pyridine-3-carboxamide] | < 3 |
| Cc1cc(I)cc(C)c1Oc1nc(-c2cc(F)cc(OCC(C)C)c2)ccc1C(=O)NS(=O)(=O)c1cccc(N)n1 [Compound 2671, N-[(6-amino-2-pyridyl)sulfonyl]-6-(3-fluoro-5-isobutoxy-phenyl)-2-(4-iodo-2,6-dimethyl-phenoxy)pyridine-3-carboxamide] | < 3 |
| CC1CN(c2ncccc2C(=O)NS(=O)(=O)c2cccc(N[C@H]3CC[C@H](NC(=O)OC(C)(C)C)CC3)n2)C(C)(C)C1 (some centres unmarked) [Compound 2439, tert-butyl N—[4-[[6-[[2-(2,2,4-trimethylpyrrolidin-1-yl)pyridine-3-carbonyl]sulfamoyl]-2-pyridyl]amino]cyclohexyl]carbamate] | < 3 |
| CCOCCOc1ccc(C(=O)NS(=O)(=O)c2cccnc2N)c(N2C[C@@H](C)CC2(C)C)n1 [Compound 2699] | < 3 |

Same assay, conditions: Table 3; compounds of Table 1 as modulators of CFTR activity; protocol not stated

| Structure (SMILES) | EC30 |
| --- | --- |
| Cc1cc(C)c(Cc2nn(C(C)(C)C)cc2C(=O)NS(=O)(=O)c2cccc(N)c2)c(C)c1 [Compound 324, N-(3-aminophenyl) sulfonyl-1-tert-butyl-3-[(2,4,6-trimethylphenyl)methyl]pyrazole-4-carboxamide] | ++ (“++” means between 3 uM and 10 uM) |
| Cc1ccccc1Oc1nc(-c2cc(F)cc(OCC(C)C)c2)ccc1C(=O)NS(=O)(=O)c1ccn[nH]1 [Compound 738, 6-(3-fluoro-5-isobutoxy-phenyl)-2-(2-methylphenoxy)-N-(1H-pyrazol-5-ylsulfonyl)pyridine-3-carboxamide] | +++ (“+++” means <3 uM) |
| Cc1cc(C)c(Oc2nc(C(C)(C)C)ccc2C(=O)NS(=O)(=O)c2ccncc2)c(C)c1 [Compound 117, 6-tert-butyl-N-(4-pyridylsulfonyl)-2-(2,4,6-trimethylphenoxy)pyridine-3-carboxamide] | +++ (“+++” means <3 uM) |
| CC(C)COc1cc(F)cc(-c2ccc(C(=O)NS(=O)(=O)c3ccn[nH]3)c(Oc3ccccc3)n2)c1 [Compound 679, 6-(3-fluoro-5-isobutoxy-phenyl)-2-phenoxy-N-(1H-pyrazol-5-ylsulfonyl)pyridine-3-carboxamide] | +++ (“+++” means <3 uM) |
| Cc1cc(C)c(CN2Cc3ccccc3C2C(=O)NS(=O)(=O)c2ccccc2)c(C)c1 (centres unmarked) [Compound 6, N-(benzenesulfonyl)-2-[(2,4,6-trimethylphenyl)methyl]isoindoline-1-carboxamide] | +++ (“+++” means <3 uM) |
| Cc1ccc(-c2nc(C(C)(C)C)ccc2C(=O)NS(=O)(=O)c2ccc(N)nc2)cc1 [Compound 702, N-[(6-amino-3-pyridyl)sulfonyl]-6-tert-butyl-2-(p-tolyl)pyridine-3-carboxamide] | ++ (“++” means between 3 uM and 10 uM) |
| Cc1cc(C)c(Oc2nc(-c3cc(OCC(C)C)ccc3F)ccc2C(=O)NS(=O)(=O)c2ccc[nH]c2=O)c(C)c1 [Compound 279, 6-(2-fluoro-5-isobutoxy-phenyl)-N-[(2-oxo-1H-pyridin-3-yl)sulfonyl]-2-(2,4,6-trimethylphenoxy)pyridine-3-carboxamide] | +++ (“+++” means <3 uM) |
| Cc1ccccc1CN1Cc2ccccc2C1(C)C(=O)NS(=O)(=O)c1cccc(N)n1 (centres unmarked) [Compound 666, N-[(6-amino-2-pyridyl)sulfonyl]-1-methyl-2-(o-tolylmethyl)isoindoline-1-carboxamide] | ++ (“++” means between 3 uM and 10 uM) |
| Cc1cc(C)c(Cn2c(C(=O)NS(=O)(=O)c3ccccc3)cc3cccc(C)c32)c(C)c1 [Compound 354, N-(benzenesulfonyl)-7-methyl-1-[(2,4,6-trimethylphenyl)methyl]indole-2-carboxamide] | +++ (“+++” means <3 uM) |
| COc1cccc(S(=O)(=O)NC(=O)c2ccc(C(C)(C)C)nc2-c2ccc(C)cc2)c1 [Compound 327, 6-tert-butyl-N-(3-methoxyphenyl)sulfonyl-2-(p-tolyl)pyridine-3-carboxamide] | +++ (“+++” means <3 uM) |
| Cc1cc(C(C)(C)C)cc(C)c1Cn1nc(C(C)(C)C)cc1C(=O)NS(=O)(=O)c1cccc(N)c1 [Compound 156, N-(3-aminophenyl)sulfonyl-5-tert-butyl-2-[(4-tert-butyl-2,6-dimethyl-phenyl)methyl]pyrazole-3-carboxamide] | +++ (“+++” means <3 uM) |
| Cc1cc(C)c(Oc2nc(C(C)(C)C)ccc2C(=O)NS(=O)(=O)c2cccnc2N)c(C)c1 [Compound 235, N-[(2-amino-3-pyridyl)sulfonyl]-6-tert-butyl-2-(2,4,6-trimethylphenoxy)pyridine-3-carboxamide] | +++ (“+++” means <3 uM) |
| CC(C)(C)c1ccc(C(=O)NS(=O)(=O)c2ccc(N)cc2)c(C2CCCCC2)n1 [Compound 537, N-(4-aminophenyl)sulfonyl-6-tert-butyl-2-cyclohexyl-pyridine-3-carboxamide] | +++ (“+++” means <3 uM) |
| Cc1cc(C)c(Oc2nc(C3(C(F)(F)F)CC3)ccc2C(=O)NS(=O)(=O)c2cccc(N)n2)c(C)c1 [Compound 621, N-[(6-amino-2-pyridyl)sulfonyl]-6-[1-(trifluoromethyl)cyclopropyl]-2-(2,4,6-trimethylphenoxy)pyridine-3-carboxamide] | +++ (“+++” means <3 uM) |
| CC(C)COc1cc(F)cc(-c2ccc(C(=O)NS(=O)(=O)c3cccc(N)n3)c(N3CCCC3)n2)c1 [Compound 592, N-[(6-amino-2-pyridyl)sulfonyl]-6-(3-fluoro-5-isobutoxy-phenyl)-2-pyrrolidin-1-yl-pyridine-3-carboxamide] | +++ (“+++” means <3 uM) |
| COc1ncccc1S(=O)(=O)NC(=O)c1cc(C(C)(C)C)nn1Cc1c(C)cc(C)cc1C [Compound 759, 5-tert-butyl-N-[(2-methoxy-3-pyridyl)sulfonyl]-2-[(2,4,6-trimethylphenyl)methyl]pyrazole-3-carboxamide] | +++ (“+++” means <3 uM) |
| Cc1cc(C)c(Oc2nc(-c3ccoc3)ccc2C(=O)NS(=O)(=O)c2cccc(N)n2)c(C)c1 [Compound 284, N-[(6-amino-2-pyridyl)sulfonyl]-6-(3-furyl)-2-(2,4,6-trimethylphenoxy)pyridine-3-carboxamide] | +++ (“+++” means <3 uM) |
| CC(C)Oc1ccc(-c2ccc(C(=O)NS(=O)(=O)c3cccc(N)n3)c(N3CCC(c4ccccc4)CC3)n2)cn1 [Compound 742, N-[(6-amino-2-pyridyl)sulfonyl]-6-(6-isopropoxy-3-pyridyl)-2-(4-phenyl-1-piperidyl)pyridine-3-carboxamide] | +++ (“+++” means <3 uM) |
